Like-named read-outs stand apart in the source and are kept apart here. Blank lines part the entries; values can stand above or below the compound they belong to. *1 amine or outer side, *2 acyl side, *3 side chain or, on linkers, in order; H or OH if unused. Where a SMILES comes first, the peptide text is derived from it. Side-chain parts run from the residue outwards. [ ]: non-standard residue; d: D form. The star is where a group is joined. αMePhe(2-F) = C[C@](N)(Cc1ccccc1F)C(=O)O; γGlu = O=C(O)[C@H](CCC(=O)[*:2])N[*:1]; C14 diacid = O=C(O)CCCCCCCCCCCCC(=O)*; αMeY = C[C@](N)(Cc1ccc(O)cc1)C(=O)O; 4Pal = N[C@@H](Cc1ccncc1)C(=O)O; αMeL = CC(C)C[C@](C)(N)C(=O)O; Orn = NCCC[C@H](N)C(=O)O; AEEA = NCCOCCOCC(=O)O; Aib = CC(C)(N)C(=O)O
How the values were obtained:
[1] = target: T1, human GIP receptor (human) (UniProt P48546); assay: cell-based or functional assay
T1 sequence (looked up): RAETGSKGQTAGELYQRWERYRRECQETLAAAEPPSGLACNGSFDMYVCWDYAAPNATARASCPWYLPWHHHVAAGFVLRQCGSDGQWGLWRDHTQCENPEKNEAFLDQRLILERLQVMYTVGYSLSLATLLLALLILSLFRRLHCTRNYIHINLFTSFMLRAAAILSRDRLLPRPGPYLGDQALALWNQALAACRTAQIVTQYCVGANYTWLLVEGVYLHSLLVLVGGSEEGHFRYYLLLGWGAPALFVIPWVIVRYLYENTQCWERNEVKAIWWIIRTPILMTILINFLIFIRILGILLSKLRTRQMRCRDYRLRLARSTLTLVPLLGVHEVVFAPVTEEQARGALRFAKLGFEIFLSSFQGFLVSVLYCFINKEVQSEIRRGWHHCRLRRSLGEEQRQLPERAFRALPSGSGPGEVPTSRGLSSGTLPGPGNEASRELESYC

hGIPR = target: T2, hGIPR (Homo sapiens, UniProt P48546); assay: Functional cAMP formation (HTRF) in HEK-293 clonal cells expressing hGIPR, 0.1% bovine casein, without or with 1.0% human serum albumin; assay type: cell-based; settings: for EC50: cAMP, 0.1% bovine casein (no human serum albumin), geometric mean
T2 construct: expressed in transfected cells
T2 sequence (P48546 22-466): T1 sequence (looked up)
In short: (§1)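 Readings of the HTRF 665/620 nm ratio, which falls as cAMP rises, were converted to nM cAMP using a standard curve after 30 min peptide exposure at 37° C.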

hGCGR = target: T3, hGCGR (Homo sapiens, UniProt P47871); assay: Functional cAMP formation (HTRF) in HEK-293 clonal cells expressing hGCGR, 0.1% bovine casein, without or with 1.0% human serum albumin; assay type: cell-based
T3 construct: expressed in transfected cells
T3 sequence (P47871 26-477): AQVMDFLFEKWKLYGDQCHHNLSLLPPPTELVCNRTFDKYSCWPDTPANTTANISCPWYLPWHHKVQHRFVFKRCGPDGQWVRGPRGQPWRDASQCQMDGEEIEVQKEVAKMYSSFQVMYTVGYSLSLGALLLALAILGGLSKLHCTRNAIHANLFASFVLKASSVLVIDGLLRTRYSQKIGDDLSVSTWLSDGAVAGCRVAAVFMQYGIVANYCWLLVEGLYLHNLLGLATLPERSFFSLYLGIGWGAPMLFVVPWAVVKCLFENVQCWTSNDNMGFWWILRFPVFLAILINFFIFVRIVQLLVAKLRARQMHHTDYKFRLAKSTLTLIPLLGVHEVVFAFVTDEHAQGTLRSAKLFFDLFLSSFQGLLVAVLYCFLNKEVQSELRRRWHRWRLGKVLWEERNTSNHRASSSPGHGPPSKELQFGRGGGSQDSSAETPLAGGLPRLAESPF
In short: as §1

hGLP-1R = hGLP-1R (Homo sapiens, UniProt P43220); assay: Functional cAMP formation (HTRF) in HEK-293 clonal cells expressing hGLP-1R, 0.1% bovine casein, without or with 1.0% human serum albumin; assay type: cell-based; design: expressed in transfected cells; settings: for EC50: geometric mean
Sequence of hGLP-1R (P43220 24-463): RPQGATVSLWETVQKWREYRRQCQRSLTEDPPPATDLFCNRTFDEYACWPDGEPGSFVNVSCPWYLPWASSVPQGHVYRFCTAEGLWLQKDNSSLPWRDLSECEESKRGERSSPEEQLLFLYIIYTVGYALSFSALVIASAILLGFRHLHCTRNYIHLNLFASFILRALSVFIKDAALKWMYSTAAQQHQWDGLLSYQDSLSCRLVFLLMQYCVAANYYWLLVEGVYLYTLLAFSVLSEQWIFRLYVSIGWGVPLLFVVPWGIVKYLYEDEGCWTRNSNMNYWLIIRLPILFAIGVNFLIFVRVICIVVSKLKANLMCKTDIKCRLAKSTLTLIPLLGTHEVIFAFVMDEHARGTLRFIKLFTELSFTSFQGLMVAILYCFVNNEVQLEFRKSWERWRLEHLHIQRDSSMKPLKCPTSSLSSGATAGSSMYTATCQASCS
In short: as §1

[2] = HEK293, percent of maximal response to GIP(1-42)NH2, 37° C., 0.1% bovine casein, arithmetic mean, read-out: hGIPR Emax, % ± SEM
[3] = cAMP, incubated at 37° C., 0.1% bovine casein (no human serum albumin), geometric mean, read-out: hGCGR EC50, nM (SEM, n)

- Emax, cAMP [1]: 100%
- cAMP EC50 (1.0% HSA) [1]: 0.597 nM
- cAMP Emax (1.0% HSA) [1]: 98%
Compound: hGIP(1-42)NH2 (from UniProt P09681 52-93) (ligand)

- Emax (hGIPR; [2]): 96.6 ± 4.38%
- EC50 (hGIPR; incubated at 37° C., read-out: hGIPR EC50, nM (SEM, n)): 0.0202 nM
- EC50 (hGCGR; [3]): > 9950 nM
- Emax (hGLP-1R; HEK293, percent of maximal response to GLP-1(7-36)NH2, 37° C., 0.1% bovine casein, arithmetic mean, read-out: hGLP-1R Emax, % ± SEM): 100 ± 3.68%
- EC50 (hGLP-1R; cAMP, incubated at 37° C., 0.1% bovine casein (no human serum albumin), read-out: hGLP-1R EC50, nM (SEM, n)): 0.28 nM
Compound: CC[C@H](C)[C@H](NC(=O)[C@H](CC(C)C)NC(=O)[C@](C)(Cc1ccc(O)cc1)NC(=O)[C@H](CCCCNC(=O)COCCOCCNC(=O)COCCOCCNC(=O)CC[C@H](NC(=O)CCCCCCCCCCCCC(=O)O)C(=O)O)NC(=O)[C@@H](NC(=O)[C@H](Cc1ccccc1)NC(=O)[C@H](CCC(=O)O)NC(=O)C(C)(C)NC(=O)[C@H](CCC(N)=O)NC(=O)[C@H](C)NC(=O)[C@H](CCCCNC(=O)COCCOCCNC(=O)COCCOCCNC(=O)CC[C@H](NC(=O)CCCCCCCCCCCCC(=O)O)C(=O)O)NC(=O)[C@H](CCCN)NC(=O)[C@H](CC(=O)O)NC(=O)[C@H](CC(C)C)NC(=O)[C@](C)(CC(C)C)NC(=O)[C@@H](NC(=O)[C@H](CO)NC(=O)[C@H](Cc1ccncc1)NC(=O)[C@H](CC(=O)O)NC(=O)[C@H](CO)NC(=O)[C@@H](NC(=O)[C@](C)(Cc1ccccc1F)NC(=O)[C@@H](NC(=O)CNC(=O)[C@H](CCC(=O)O)NC(=O)C(C)(C)NC(=O)[C@@H](N)Cc1ccc(O)cc1)[C@@H](C)O)[C@@H](C)O)[C@@H](C)CC)[C@@H](C)CC)C(=O)N[C@@H](CCC(=O)O)C(=O)NCC(=O)NCC(N)=O [Example 189] (H-Y[Aib]EGT[αMePhe(2-F)]TSD[4Pal]SI[αMeL]LD[Orn]K([AEEA-AEEA-γGlu-C14 diacid])AQ[Aib]EFIK([AEEA-AEEA-γGlu-C14 diacid])[αMeY]LIEGG-NH2; N-terminus assumed)

Compound: CC[C@H](C)[C@H](NC(=O)[C@H](CC(C)C)NC(=O)[C@](C)(Cc1ccc(O)cc1)NC(=O)[C@@H](CCC(=O)O)NC(=O)[C@@H](NC(=O)[C@H](Cc1ccccc1)NC(=O)[C@H](CCC(=O)O)NC(=O)C(C)(C)NC(=O)[C@H](CCC(N)=O)NC(=O)[C@H](C)NC(=O)[C@H](CCCCNC(=O)COCCOCCNC(=O)COCCOCCNC(=O)CC[C@H](NC(=O)CCCCCCCCCOc1ccc(C(=O)O)cc1)C(=O)O)NC(=O)[C@H](CCCN)NC(=O)[C@H](CC(=O)O)NC(=O)[C@H](CC(C)C)NC(=O)[C@](C)(CC(C)C)NC(=O)[C@@H](NC(=O)C(C)(C)NC(=O)[C@H](Cc1ccncc1)NC(=O)[C@H](CC(=O)O)NC(=O)[C@H](CO)NC(=O)[C@@H](NC(=O)[C@](C)(Cc1ccccc1F)NC(=O)[C@@H](NC(=O)CNC(=O)[C@H](CCC(=O)O)NC(=O)C(C)(C)NC(=O)[C@@H](N)Cc1ccc(O)cc1)[C@@H](C)O)[C@@H](C)O)[C@@H](C)CC)[C@@H](C)CC)C(=O)N[C@@H](CCC(=O)O)C(=O)NCC(=O)NCC(=O)N1CCC[C@H]1C(=O)N[C@@H](CO)C(=O)N[C@@H](CO)C(=O)NCC(=O)N[C@@H](C)C(=O)N1CCC[C@H]1C(=O)N1CCC[C@H]1C(=O)N1CCC[C@H]1C(=O)N[C@@H](CO)C(=O)N[C@@H](CCCCNC(=O)COCCOCCNC(=O)COCCOCCNC(=O)CC[C@H](NC(=O)CCCCCCCCCOc1ccc(C(=O)O)cc1)C(=O)O)C(N)=O [Example 245]
- Emax (hGIPR; HEK293, read-out: hGIPR Emax, % ± SEM, 0.1% bovine casein and 1.0% human serum albumin, 37° C., percent of maximal response to GIP(1-42)NH2): 81.9%
- Emax (hGIPR; HEK293, read-out: hGIPR Emax, % ± SEM, percent of maximal response to GIP(1-42)NH2, 37° C., 0.1% bovine casein, arithmetic mean): 96.7%
- EC50 (hGIPR; hGIPR EC50, nM (SEM, n), incubated at 37° C.): 0.0195 nM
- EC50 (hGCGR; hGCGR EC50, nM (SEM, n), 0.1% bovine casein and 1.0% human serum albumin, 37° C., geometric mean): > 9950 nM
- EC50 (hGCGR; hGCGR EC50, nM (SEM, n), cAMP, incubated at 37° C., 0.1% bovine casein (no human serum albumin), geometric mean): > 9950 nM
- Emax (hGLP-1R; HEK293, read-out: hGLP-1R Emax, % ± SEM, 0.1% bovine casein and 1.0% human serum albumin, 37° C., percent of maximal response to GLP-1(7-36)NH2): 93.8%
- Emax (hGLP-1R; HEK293, read-out: hGLP-1R Emax, % ± SEM, percent of maximal response to GLP-1(7-36)NH2, 37° C., 0.1% bovine casein, arithmetic mean): 88.9%
- EC50 (hGLP-1R; hGLP-1R EC50, nM (SEM, n), 0.1% bovine casein and 1.0% human serum albumin, 37° C.): 27 nM
- EC50 (hGLP-1R; hGLP-1R EC50, nM (SEM, n), cAMP, incubated at 37° C., 0.1% bovine casein (no human serum albumin)): 1.88 nM

Compound: CC[C@H](C)[C@H](NC(=O)[C@H](CC(C)C)NC(=O)[C@](C)(Cc1ccc(O)cc1)NC(=O)[C@@H](CCC(=O)O)NC(=O)[C@@H](NC(=O)[C@H](Cc1ccccc1)NC(=O)[C@H](CCCCNC(=O)COCCOCCNC(=O)COCCOCCNC(=O)CC[C@H](NC(=O)CCCCCCCCCCCCC(=O)O)C(=O)O)NC(=O)C(C)(C)NC(=O)[C@H](CCC(N)=O)NC(=O)[C@H](C)NC(=O)[C@H](CCCCNC(=O)COCCOCCNC(=O)COCCOCCNC(=O)CC[C@H](NC(=O)CCCCCCCCCCCCC(=O)O)C(=O)O)NC(=O)[C@H](CCCN)NC(=O)[C@H](CC(=O)O)NC(=O)[C@H](CC(C)C)NC(=O)[C@](C)(CC(C)C)NC(=O)[C@@H](NC(=O)C(C)(C)NC(=O)[C@H](Cc1ccncc1)NC(=O)[C@H](CC(=O)O)NC(=O)[C@H](CO)NC(=O)[C@@H](NC(=O)[C@](C)(Cc1ccccc1F)NC(=O)[C@@H](NC(=O)CNC(=O)[C@H](CCC(=O)O)NC(=O)C(C)(C)NC(=O)[C@@H](N)Cc1ccc(O)cc1)[C@@H](C)O)[C@@H](C)O)[C@@H](C)CC)[C@@H](C)CC)C(=O)N[C@@H](CCC(=O)O)C(=O)NCC(=O)NCC(=O)N1CCC[C@H]1C(=O)N[C@@H](CO)C(=O)N[C@@H](CO)C(=O)NCC(=O)N[C@@H](C)C(=O)N1CCC[C@H]1C(=O)N1CCC[C@H]1C(=O)N1CCC[C@H]1C(=O)N[C@@H](CO)C(N)=O [Example 357]
- Emax (hGIPR; HEK293, cAMP, 37° C., 0.1% bovine casein and 1.0% human serum albumin, percent of maximal response to GIP(1-42)NH2, read-out: hGIPR Emax, % ± SEM): 78.2%
- EC50 (hGIPR; 37° C., read-out: hGIPR EC50, nM (SEM, n)): 0.011 nM
- EC50 (hGCGR; cAMP, 37° C., 0.1% bovine casein (no human serum albumin), geometric mean, read-out: hGCGR EC50, nM (SEM, n)): > 10100 nM
- EC50 (hGCGR; cAMP, 37° C., 0.1% bovine casein and 1.0% human serum albumin, geometric mean (SEM, n), read-out: hGCGR EC50, nM (SEM, n)): > 9950 nM
- Emax (hGLP-1R; HEK293, cAMP, 37° C., 0.1% bovine casein and 1.0% human serum albumin, percent of maximal response to GLP-1(7-36)NH2, read-out: hGLP-1R Emax, % ± SEM): 92.8%
- EC50 (hGLP-1R; cAMP, 37° C., 0.1% bovine casein (no human serum albumin), read-out: hGLP-1R EC50, nM (SEM, n)): 0.649 nM

Compound: CC[C@H](C)[C@H](NC(=O)[C@H](CC(C)C)NC(=O)[C@](C)(Cc1ccc(O)cc1)NC(=O)[C@@H](CCC(=O)O)NC(=O)[C@@H](NC(=O)[C@H](Cc1ccccc1)NC(=O)[C@H](CCC(=O)O)NC(=O)C(C)(C)NC(=O)[C@H](CCC(N)=O)NC(=O)[C@H](C)NC(=O)[C@H](CCCCNC(=O)COCCOCCNC(=O)COCCOCCNC(=O)CC[C@H](NC(=O)CCCCCCCCCCCCC(=O)O)C(=O)O)NC(=O)[C@H](CCCN)NC(=O)[C@H](CC(=O)O)NC(=O)[C@H](CC(C)C)NC(=O)[C@](C)(CC(C)C)NC(=O)[C@@H](NC(=O)[C@H](CO)NC(=O)C1(NC(=O)[C@H](CC(=O)O)NC(=O)[C@H](CO)NC(=O)[C@@H](NC(=O)[C@](C)(Cc2ccccc2F)NC(=O)[C@@H](NC(=O)CNC(=O)[C@H](CCC(=O)O)NC(=O)C(C)(C)NC(=O)[C@@H](N)Cc2ccc(O)cc2)[C@@H](C)O)[C@@H](C)O)CCCCC1)[C@@H](C)CC)[C@@H](C)CC)C(=O)N[C@@H](CCC(=O)O)C(=O)NCC(=O)NCC(=O)N[C@@H](CCCCNC(=O)COCCOCCNC(=O)COCCOCCNC(=O)CC[C@H](NC(=O)CCCCCCCCCCCCC(=O)O)C(=O)O)C(=O)N[C@@H](CO)C(=O)N[C@@H](CO)C(=O)NCC(=O)N[C@@H](C)C(=O)N1CCC[C@H]1C(=O)N1CCC[C@H]1C(=O)N1CCC[C@H]1C(=O)N[C@@H](CO)C(N)=O [Example 54]
- Emax (hGIPR; HEK293, 0.1% bovine casein and 1.0% human serum albumin, 37° C., percent of maximal response to GIP(1-42)NH2, read-out: hGIPR Emax, % ± SEM): 85.6%
- Emax (hGIPR; [2]): 113%
- EC50 (hGCGR; 0.1% bovine casein and 1.0% human serum albumin, 37° C., geometric mean, read-out: hGCGR EC50, nM (SEM, n)): > 9950 nM
- EC50 (hGCGR; [3]): > 9950 nM
- EC50 (hGLP-1R; 0.1% bovine casein and 1.0% human serum albumin, 37° C., read-out: hGLP-1R EC50, nM (SEM, n)): 20.3 nM
